{"source": "patent US11472788B2", "about": "“Benzoimidazoles as selective inhibitors of indoleamine 2,3-dioxygenases” (BEIGENE, LTD., priority 2017, dated 2022)", "target": "cellular IDO1 in HeLa cells (Homo sapiens (Human), UniProt P14902)", "sequence (P14902 whole entry)": "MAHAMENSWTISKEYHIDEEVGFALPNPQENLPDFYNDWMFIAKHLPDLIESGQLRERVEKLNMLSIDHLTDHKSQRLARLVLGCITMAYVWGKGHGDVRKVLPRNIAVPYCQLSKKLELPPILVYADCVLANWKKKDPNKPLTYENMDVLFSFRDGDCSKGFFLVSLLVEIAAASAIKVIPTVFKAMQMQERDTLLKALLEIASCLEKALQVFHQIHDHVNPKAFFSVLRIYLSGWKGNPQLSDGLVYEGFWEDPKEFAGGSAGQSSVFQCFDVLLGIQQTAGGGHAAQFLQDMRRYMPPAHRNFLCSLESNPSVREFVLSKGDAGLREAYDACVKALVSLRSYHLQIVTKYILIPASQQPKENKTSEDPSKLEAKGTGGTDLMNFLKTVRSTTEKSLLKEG", "experiment": "HeLa Cell-Based IDO1 Kyn (Kynurenine) Production Assay", "conditions": "IFN-γ induced IDO1, 48 hours incubation, Kyn absorbance at 480 nm", "description": "HeLa Cell-Based IDO1 Kyn (Kynurenine) Production Assay:\nThe inhibitory activity of IDO1 inhibitors is determined by using a colorimetric reaction to measure Kyn generated from L-Trp (L-Tryptophon) oxidation by cellular IDO1 in HeLa cells after induction of IDO1 expression by IFN-γ.\nHela cells were obtained from the American Type Culture Collection and recovered in 10% FBS-containing phenol red-free DMEM medium. Cells were plated onto a 96-well plate (100 μl/well) at 8000 cells per well and kept at 37° C. in a humidified incubator supplied with 5% CO2. 4 hours later, Human recombinant IFN-γ (8901SC, CST) was added to cells (final concentration 100 ng/mL) to stimulate endogenous IDOL. Compounds at different concentrations diluted in dimethylsulfoxide (DMSO) were added simultaneously with IFN-γ and 0.4 mM L-Trp. Cells were kept at 37° C. in a humidified incubator supplied with 5% CO2. After 48 hours of incubation, 100 μl supernatant from each well was removed to a new plate. The protein in the medium was precipitated with the addition of 8 μl 6N trichloroacetic acid. The plate was incubated at 60° C. for 30 minutes and then centrifugation at 2500 rpm for 10 minutes to remove sediments. 80 μl supernatants were carefully removed to a new clean plate and added with an equal volume of 2% 4-(Dimethylamino)benzaldehyde (D2004, sigma) dissolved in glacial acetic acid. The absorbance at 480 nm wavelength derived from Kyn was measured using a PHERAstar FS plate reader (BMG LABTECH). The IC5C for each compound was derived from fitting the dose-response data to the four-parameter logistic model by using XLfit software (IDBS).", "data": [{"smiles": "C[C@@H](c1nc2ccc(Cl)cc2[nH]1)C1CCC(c2cnc3ccccc3c2)CC1", "note": "(stereo partly drawn) [Example B25b, (R)-3-(4-(1-(6-chloro-1H-benzo[d]imidazol-2-yl)ethyl)cyclohexyl)quinoline]", "values": [{"measurement": "EC50", "value": 3.1, "unit": "nM"}]}, {"smiles": "C[C@@H](c1nc2c(Cl)c(F)cc(F)c2[nH]1)[C@H]1CC[C@@H](c2ccnc3ccc(F)cc32)CC1", "note": "[Example B123, 4-((1S,4s)-4-((R)-1-(4-chloro-5,7-difluoro-1H-benzo[d]imidazol-2-yl)ethyl)cyclohexyl)-6-fluoroquinoline]", "values": [{"measurement": "EC50", "value": 6.79, "unit": "nM"}]}, {"smiles": "C[C@@H](c1nc2c(F)c(F)cc(Cl)c2[nH]1)[C@H]1CC[C@@H](c2ccnc3ccc(F)cc32)CC1", "note": "[Example B124, 4-((1S,4s)-4-((R)-1-(7-chloro-4,5-difluoro-1H-benzo[d]imidazol-2-yl)ethyl)cyclohexyl)-6-fluoroquinoline]", "values": [{"measurement": "EC50", "value": 16.4, "unit": "nM"}]}, {"smiles": "C[C@@H](c1nc2c(Cl)c(F)c(F)cc2[nH]1)[C@H]1CC[C@@H](c2ccnc3ccc(F)cc32)CC1", "note": "[Example B125, 4-((1S,4s)-4-((R)-1-(4-chloro-5,6-difluoro-1H-benzo[d]imidazol-2-yl)ethyl)cyclohexyl)-6-fluoroquinoline]", "values": [{"measurement": "EC50", "value": 8.79, "unit": "nM"}]}, {"smiles": "C[C@@H](c1nc2ccc(NS(C)(=O)=O)cc2[nH]1)[C@H]1CC[C@@H](c2ccnc3ccc(F)cc32)CC1", "note": "[Example B136, N-(2-((R)-1-((1s,4S)-4-(6-fluoroquinolin-4-yl)cyclohexyl)ethyl)-1H-benzo[d]imidazol-6-yl)methanesulfonamide]", "values": [{"measurement": "EC50", "value": 296, "unit": "nM"}]}, {"smiles": "C[C@@H](c1nc2ccc(S(C)(=O)=O)cc2[nH]1)[C@H]1CC[C@@H](c2ccnc3ccc(F)cc32)CC1", "note": "[Example B138, 6-fluoro-4-((1S,4s)-4-((R)-1-(6-(methylsulfonyl)-1H-benzo[d]imidazol-2-yl)ethyl)cyclohexyl)quinoline]", "values": [{"measurement": "EC50", "value": 18.8, "unit": "nM"}]}, {"smiles": "COC(=O)c1cc(C)c2nc([C@H](C)[C@H]3CC[C@@H](c4ccnc5ccc(F)cc54)CC3)[nH]c2c1", "note": "[Example B141, methyl 2-((R)-1-((1s,4S)-4-(6-fluoroquinolin-4-yl)cyclohexyl)ethyl)-4-methyl-1H-benzo[d]imidazole-6-carboxylate]", "values": [{"measurement": "EC50", "value": 6.89, "unit": "nM"}]}, {"smiles": "CC(c1nc2cc3c(=O)[nH]cnc3cc2[nH]1)[C@H]1CC[C@@H](c2ccnc3ccc(F)cc32)CC1", "note": "(some centres unmarked) [Example B151, 2-(1-((1s,4s)-4-(6-fluoroquinolin-4-yl)cyclohexyl)ethyl)-3,7-dihydro-8H-imidazo[4,5-g]quinazolin-8-one]", "values": [{"measurement": "EC50", "value": 82.3, "unit": "nM"}]}, {"smiles": "C[C@@H](c1nc2cc(-c3ncccn3)ccc2[nH]1)[C@H]1CC[C@@H](c2ccnc3ccc(F)cc32)CC1", "note": "[Example B157, 6-fluoro-4-((1S,4s)-4-((R)-1-(5-(pyrimidin-2-yl)-1H-benzo[d]imidazol-2-yl)ethyl)cyclohexyl)quinoline]", "values": [{"measurement": "EC50", "value": 3.8, "unit": "nM"}]}, {"smiles": "CC(c1nc2cc3c(cc2[nH]1)CCC(=O)N3)[C@H]1CC[C@@H](c2ccnc3ccc(F)cc32)CC1", "note": "(some centres unmarked) [Example B159, 2-(1-((1s,4s)-4-(6-fluoroquinolin-4-yl)cyclohexyl)ethyl)-1,5,7,8-tetrahydro-6H-imidazo[4,5-g]quinolin-6-one]", "values": [{"measurement": "EC50", "value": 67.7, "unit": "nM"}]}, {"smiles": "CC(c1nc2cc(C(=O)N(C)C)ccc2[nH]1)[C@H]1CC[C@@H](c2ccnc3ccc(F)cc32)CC1", "note": "(some centres unmarked) [Example B160, 2-(1-((1s,4s)-4-(6-fluoroquinolin-4-yl)cyclohexyl)ethyl)-N,N-dimethyl-1H-benzo[d]imidazole-5-carboxamide]", "values": [{"measurement": "EC50", "value": 46, "unit": "nM"}]}, {"smiles": "CC(c1nc2ccc(C(=O)O)cc2[nH]1)[C@H]1CC[C@@H](c2ccnc3ccc(F)cc32)CC1", "note": "(some centres unmarked) [Example B163, 2-(1-((1s,4s)-4-(6-fluoroquinolin-4-yl)cyclohexyl)ethyl)-1H-benzo[d]imidazole-6-carboxylic acid]", "values": [{"measurement": "EC50", "value": 567, "unit": "nM"}]}, {"smiles": "CC(c1nc2ccc(C(=O)NC3CCC3)cc2[nH]1)[C@H]1CC[C@@H](c2ccnc3ccc(F)cc32)CC1", "note": "(some centres unmarked) [Example B164, N-cyclobutyl-2-(1-((1s,4s)-4-(6-fluoroquinolin-4-yl)cyclohexyl)ethyl)-1H-benzo[d]imidazole-6-carboxamide]", "values": [{"measurement": "EC50", "value": 5.8, "unit": "nM"}]}, {"smiles": "CC(c1nc2cc3ccccc3cc2[nH]1)[C@H]1CC[C@@H](c2ccnc3ccc(F)cc32)CC1", "note": "(some centres unmarked) [Example B166, 2-(1-((1s,4s)-4-(6-fluoroquinolin-4-yl)cyclohexyl)ethyl)-1H-naphtho[2,3-d]imidazole]", "values": [{"measurement": "EC50", "value": 251, "unit": "nM"}]}, {"smiles": "CC(c1nc2ccc(S(C)(=O)=O)cc2[nH]1)[C@H]1CC[C@@H](c2ccnc3ccc(F)cc32)CC1", "note": "(some centres unmarked) [Example B167, 6-fluoro-4-((1s,4s)-4-(1-(6-(methylsulfonyl)-1H-benzo[d]imidazol-2-yl)ethyl)cyclohexyl)quinoline]", "values": [{"measurement": "EC50", "value": 18.8, "unit": "nM"}]}, {"smiles": "CC(c1nc2ccc(N)cc2[nH]1)[C@H]1CC[C@@H](c2ccnc3ccc(F)cc32)CC1", "note": "(some centres unmarked) [Example B169, 2-(1-((1s,4s)-4-(6-fluoroquinolin-4-yl)cyclohexyl)ethyl)-1H-benzo[d]imidazol-6-amine]", "values": [{"measurement": "EC50", "value": 19.6, "unit": "nM"}]}, {"smiles": "CC(c1nc2c(F)c(F)cc(Cl)c2[nH]1)[C@H]1CC[C@@H](c2ccnc3ccc(F)cc32)CC1", "note": "(some centres unmarked) [Example B172, 4-((1s,4s)-4-(1-(7-chloro-4,5-difluoro-1H-benzo[d]imidazol-2-yl)ethyl)cyclohexyl)-6-fluoroquinoline]", "values": [{"measurement": "EC50", "value": 16.4, "unit": "nM"}]}, {"smiles": "C[C@@H](c1nc2cc3ccccc3cc2[nH]1)[C@H]1CC[C@@H](c2ccnc3ccc(F)cc32)CC1", "note": "[Example B173, 2-((R)-1-((1s,4S)-4-(6-fluoroquinolin-4-yl)cyclohexyl)ethyl)-1H-naphtho[2,3-d]imidazole]", "values": [{"measurement": "EC50", "value": 12.7, "unit": "nM"}]}, {"smiles": "C[C@@H](c1nc2ccc(S(C)(=O)=O)cc2[nH]1)[C@H]1CC[C@H](c2ccnc3ccc(F)cc32)CC1", "note": "[Example B178, 6-fluoro-4-((1R,4r)-4-((R)-1-(6-(methylsulfonyl)-1H-benzo[d]imidazol-2-yl)ethyl)cyclohexyl)quinoline]", "values": [{"measurement": "EC50", "value": 283, "unit": "nM"}]}, {"smiles": "CC(=O)Nc1ccc2nc([C@H](C)[C@H]3CC[C@@H](c4ccnc5ccc(F)cc54)CC3)[nH]c2c1", "note": "[Example B179, N-(2-((R)-1-((1r,4R)-4-(6-fluoroquinolin-4-yl)cyclohexyl)ethyl)-1H-benzo[d]imidazol-6-yl)acetamide]", "values": [{"measurement": "EC50", "value": 36.2, "unit": "nM"}]}, {"smiles": "C[C@@H](c1nc2ccc(NS(C)(=O)=O)cc2[nH]1)[C@H]1CC[C@@H](c2ccnc3ccc(F)cc32)CC1", "note": "[Example B180, N-(2-((R)-1-((1r,4R)-4-(6-fluoroquinolin-4-yl)cyclohexyl)ethyl)-1H-benzo[d]imidazol-6-yl)methanesulfonamide]", "values": [{"measurement": "EC50", "value": 384, "unit": "nM"}]}, {"smiles": "CC(c1nc2cc(C(=O)Nc3ccccc3)ccc2[nH]1)[C@H]1CC[C@@H](c2ccnc3ccc(F)cc32)CC1", "note": "(some centres unmarked) [Example B182, 2-(1-((1s,4s)-4-(6-fluoroquinolin-4-yl)cyclohexyl)ethyl)-N-phenyl-1H-benzo[d]imidazole-5-carboxamide]", "values": [{"measurement": "EC50", "value": 86.7, "unit": "nM"}]}, {"smiles": "CC(c1nc2cc(C(=O)NCC3(O)CCC3)ccc2[nH]1)[C@H]1CC[C@@H](c2ccnc3ccc(F)cc32)CC1", "note": "(some centres unmarked) [Example B183, 2-(1-((1s,4s)-4-(6-fluoroquinolin-4-yl)cyclohexyl)ethyl)-N-((1-hydroxycyclobutyl)methyl)-1H-benzo[d]imidazole-5-carboxamide]", "values": [{"measurement": "EC50", "value": "> 1000", "unit": "nM"}]}, {"smiles": "CC(c1nc2cc(C(=O)NCC3(O)CCC3)ccc2[nH]1)[C@H]1CC[C@H](c2ccnc3ccc(F)cc32)CC1", "note": "(some centres unmarked) [Example B184, 2-(1-((1r,4r)-4-(6-fluoroquinolin-4-yl)cyclohexyl)ethyl)-N-((1-hydroxycyclobutyl)methyl)-1H-benzo[d]imidazole-5-carboxamide]", "values": [{"measurement": "EC50", "value": "> 1000", "unit": "nM"}]}, {"smiles": "COC1CCC(NC(=O)c2ccc3[nH]c(C(C)[C@H]4CC[C@@H](c5ccnc6ccc(F)cc65)CC4)nc3c2)CC1", "note": "(some centres unmarked) [Example B185, 2-(1-((1s,4s)-4-(6-fluoroquinolin-4-yl)cyclohexyl)ethyl)-N-(4-methoxycyclohexyl)-1H-benzo[d]imidazole-5-carboxamide]", "values": [{"measurement": "EC50", "value": 122, "unit": "nM"}]}, {"smiles": "COC1CCC(NC(=O)c2ccc3[nH]c(C(C)[C@H]4CC[C@H](c5ccnc6ccc(F)cc65)CC4)nc3c2)CC1", "note": "(some centres unmarked) [Example B186, 2-(1-((1r,4r)-4-(6-fluoroquinolin-4-yl)cyclohexyl)ethyl)-N-(4-methoxycyclohexyl)-1H-benzo[d]imidazole-5-carboxamide]", "values": [{"measurement": "EC50", "value": 193, "unit": "nM"}]}, {"smiles": "C[C@@H](c1nc2cc(F)c(F)c(Cl)c2[nH]1)[C@H]1CC[C@@H](c2ccnc3ccc(F)cc32)CC1", "note": "[Example B189, 4-((1R,4s)-4-((S)-1-(7-chloro-5,6-difluoro-1H-benzo[d]imidazol-2-yl)ethyl)cyclohexyl)-6-fluoroquinoline]", "values": [{"measurement": "EC50", "value": 45.9, "unit": "nM"}]}, {"smiles": "C[C@@H](c1nc2cc(F)c(F)c(Cl)c2[nH]1)[C@H]1CC[C@H](c2ccnc3ccc(F)cc32)CC1", "note": "[Example B190, 4-((1R,4r)-4-((R)-1-(7-chloro-5,6-difluoro-1H-benzo[d]imidazol-2-yl)ethyl)cyclohexyl)-6-fluoroquinoline]", "values": [{"measurement": "EC50", "value": 5.74, "unit": "nM"}]}, {"smiles": "CON(C)C(=O)c1ccc2nc([C@H](C)[C@H]3CC[C@@H](c4ccnc5ccc(F)cc54)CC3)[nH]c2c1", "note": "[Example B196]", "values": [{"measurement": "EC50", "value": 26.5, "unit": "nM"}]}]}
